Measured values published in the NIST ThermoML archive (doi:10.1016/j.fluid.2014.11.020).
Numbers after ± are expanded uncertainties.

Assay: activity coefficient (dimensionless); of the first substance listed, at infinite dilution; xn = mol fraction of the nth substance listed
Settings: Liquid, Chromatography, x1 = 0

Structure (SMILES)	activity coefficient (323.15 K)	activity coefficient (333.15 K)	activity coefficient (343.15 K)
C[N+](=O)[O-] [nitromethane] + CCCOC[n+]1ccn(C)c1.N#C[N-]C#N	0.69 ± 0.05	0.7 ± 0.05	0.73 ± 0.05
C[N+](=O)[O-] [nitromethane] + CCCOC[n+]1ccn(C)c1.O=S(=O)([N-]S(=O)(=O)C(F)(F)F)C(F)(F)F	0.55 ± 0.04	0.53 ± 0.04	0.53 ± 0.04
C[N+](=O)[O-] [nitromethane] + CCCOC[n+]1ccn(Cc2ccccc2)c1.F[B-](F)(F)F	0.58 ± 0.04	0.57 ± 0.04	0.58 ± 0.04
C[N+](=O)[O-] [nitromethane] + CCCOC[n+]1ccn(Cc2ccccc2)c1.N#C[N-]C#N	1.06 ± 0.07	0.71 ± 0.05	0.72 ± 0.05
C[N+](=O)[O-] [nitromethane] + CCCOC[n+]1ccn(Cc2ccccc2)c1.O=S(=O)([N-]S(=O)(=O)C(F)(F)F)C(F)(F)F	0.46 ± 0.04	0.4 ± 0.03	0.4 ± 0.03
C[N+](=O)[O-] [nitromethane] + CN(C)c1cc[n+](COCCCOC[n+]2ccc(N(C)C)cc2)cc1.O=S(=O)([N-]S(=O)(=O)C(F)(F)F)C(F)(F)F.O=S(=O)([N-]S(=O)(=O)C(F)(F)F)C(F)(F)F	0.39 ± 0.03	0.39 ± 0.03	0.38 ± 0.03
C[N+](=O)[O-] [nitromethane] + Cn1cc[n+](COCCCOC[n+]2ccn(C)c2)c1.N#C[N-]C#N.N#C[N-]C#N	0.56 ± 0.04	0.56 ± 0.04	0.57 ± 0.04
C[N+](=O)[O-] [nitromethane] + Cn1cc[n+](COCCCOC[n+]2ccn(C)c2)c1.O=S(=O)([N-]S(=O)(=O)C(F)(F)F)C(F)(F)F.O=S(=O)([N-]S(=O)(=O)C(F)(F)F)C(F)(F)F	0.31 ± 0.03	0.31 ± 0.03	0.29 ± 0.03
C[N+](=O)[O-] [nitromethane] + N#C[N-]C#N.N#C[N-]C#N.c1ccc(Cn2cc[n+](COCCCOC[n+]3ccn(Cc4ccccc4)c3)c2)cc1	0.86 ± 0.06	0.85 ± 0.05	0.87 ± 0.06
CCCCCCCCC [nonane] + CCCCCCCCn1cc[n+](COCCC)c1C.N#C[N-]C#N	14.9 ± 1	13.6 ± 0.93	13.1 ± 0.9
CCCCCCCCC [nonane] + CCCCCCCCn1cc[n+](COCCC)c1C.O=S(=O)([N-]S(=O)(=O)C(F)(F)F)C(F)(F)F	7.93 ± 0.54	7.42 ± 0.51	6.93 ± 0.47
CCCCCCCCC [nonane] + CCCCCCCCn1cc[n+](COCCCOC[n+]2ccn(CCCCCCCC)c2C)c1C.N#C[N-]C#N.N#C[N-]C#N	17.1 ± 1.2	15.8 ± 1.1	14.3 ± 0.98
CCCCCCCCC [nonane] + CCCCCCCCn1cc[n+](COCCCOC[n+]2ccn(CCCCCCCC)c2C)c1C.O=S(=O)([N-]S(=O)(=O)C(F)(F)F)C(F)(F)F.O=S(=O)([N-]S(=O)(=O)C(F)(F)F)C(F)(F)F	8.26 ± 0.56	7.45 ± 0.51	7.1 ± 0.48
CCCCCCCCC [nonane] + CCCOC[n+]1ccc(N(C)C)cc1.O=S(=O)([N-]S(=O)(=O)C(F)(F)F)C(F)(F)F	32.8 ± 2.2	30.6 ± 2.1	27.1 ± 1.9
CCCCCCCCC [nonane] + CCCOC[n+]1ccn(C)c1.F[B-](F)(F)F	553 ± 38	384 ± 26	337 ± 23
CCCCCCCCC [nonane] + CCCOC[n+]1ccn(C)c1.N#C[N-]C#N	263 ± 18	234 ± 16	197 ± 14
CCCCCCCCC [nonane] + CCCOC[n+]1ccn(C)c1.O=S(=O)([N-]S(=O)(=O)C(F)(F)F)C(F)(F)F	52.4 ± 3.6	45.9 ± 3.1	40.5 ± 2.8

Structure (SMILES)	activity coefficient (323.15 K)	activity coefficient (333.15 K)	activity coefficient (343.15 K)
CCCCCCCCC [nonane] + CCCOC[n+]1ccn(Cc2ccccc2)c1.F[B-](F)(F)F	179 ± 12	164 ± 11	126 ± 8.7
CCCCCCCCC [nonane] + CCCOC[n+]1ccn(Cc2ccccc2)c1.N#C[N-]C#N	110 ± 7.6	93.6 ± 6.4	76.2 ± 5.2
CCCCCCCCC [nonane] + CCCOC[n+]1ccn(Cc2ccccc2)c1.O=S(=O)([N-]S(=O)(=O)C(F)(F)F)C(F)(F)F	23.3 ± 1.6	19.1 ± 1.3	17.5 ± 1.2
CCCCCCCCC [nonane] + CN(C)c1cc[n+](COCCCOC[n+]2ccc(N(C)C)cc2)cc1.O=S(=O)([N-]S(=O)(=O)C(F)(F)F)C(F)(F)F.O=S(=O)([N-]S(=O)(=O)C(F)(F)F)C(F)(F)F	60.7 ± 4.2	52 ± 3.6	47.2 ± 3.2
CCCCCCCCC [nonane] + Cn1cc[n+](COCCCOC[n+]2ccn(C)c2)c1.O=S(=O)([N-]S(=O)(=O)C(F)(F)F)C(F)(F)F.O=S(=O)([N-]S(=O)(=O)C(F)(F)F)C(F)(F)F	105 ± 7.2	96.7 ± 6.6	72.4 ± 5
CCCCCCCCC [nonane] + N#C[N-]C#N.N#C[N-]C#N.c1ccc(Cn2cc[n+](COCCCOC[n+]3ccn(Cc4ccccc4)c3)c2)cc1	335 ± 23	264 ± 18	226 ± 16
CCCCCCCC [octane] + CCCCCCCCn1cc[n+](COCCC)c1C.N#C[N-]C#N	11 ± 0.75	10.1 ± 0.69	9.94 ± 0.68
CCCCCCCC [octane] + CCCCCCCCn1cc[n+](COCCC)c1C.O=S(=O)([N-]S(=O)(=O)C(F)(F)F)C(F)(F)F	5.76 ± 0.39	5.48 ± 0.37	5.17 ± 0.35
CCCCCCCC [octane] + CCCCCCCCn1cc[n+](COCCCOC[n+]2ccn(CCCCCCCC)c2C)c1C.N#C[N-]C#N.N#C[N-]C#N	12.1 ± 0.82	11.4 ± 0.78	11.3 ± 0.77
CCCCCCCC [octane] + CCCCCCCCn1cc[n+](COCCCOC[n+]2ccn(CCCCCCCC)c2C)c1C.O=S(=O)([N-]S(=O)(=O)C(F)(F)F)C(F)(F)F.O=S(=O)([N-]S(=O)(=O)C(F)(F)F)C(F)(F)F	5.97 ± 0.41	5.45 ± 0.37	5.08 ± 0.35
CCCCCCCC [octane] + CCCOC[n+]1ccc(N(C)C)cc1.O=S(=O)([N-]S(=O)(=O)C(F)(F)F)C(F)(F)F	22.2 ± 1.5	20.5 ± 1.4	17.7 ± 1.2
CCCCCCCC [octane] + CCCOC[n+]1ccn(C)c1.F[B-](F)(F)F	292 ± 20	213 ± 15	182 ± 13
CCCCCCCC [octane] + CCCOC[n+]1ccn(C)c1.N#C[N-]C#N	155 ± 11	135 ± 9.2	112 ± 7.7
CCCCCCCC [octane] + CCCOC[n+]1ccn(C)c1.O=S(=O)([N-]S(=O)(=O)C(F)(F)F)C(F)(F)F	34.1 ± 2.3	29.7 ± 2	26.4 ± 1.8
CCCCCCCC [octane] + CCCOC[n+]1ccn(Cc2ccccc2)c1.N#C[N-]C#N	70.1 ± 4.8	61.5 ± 4.2	57.8 ± 4
CCCCCCCC [octane] + CCCOC[n+]1ccn(Cc2ccccc2)c1.O=S(=O)([N-]S(=O)(=O)C(F)(F)F)C(F)(F)F	16.1 ± 1.1	12.9 ± 0.88	12.5 ± 0.85
